Experimental data taken from US12486276B2, “5-(2,5-difluorophenyl)pyrrolidin-1-yl)-3-(1H-pyrazol-1-yl)pyrazolo[1,5-a]pyrimidine derivatives and related compounds as Trk kinase inhibitors for treating cancer” (Pyramid Biosciences, Inc., priority 2017, dated 2025).

Each compound was assayed against T1, TrkA kinase domain (Homo sapiens, UniProt P04629) (assay: TrkA Kinase Assay (Trk kinase biochemical assay)). Conditions: 33 pM TrkA, 100 nM peptide substrate, 10 µM ATP; 15 minute preincubation; read-out: TrkA WT IC50.
T1 construct: TrkA kinase domain was supplied by SignalChem; purchased SignalChem
Protocol: Example 33: TrkA Kinase Assay Protocol
TrkA kinase domain was supplied by SignalChem. Ulight PolyGT peptide substrate and Europium labeled W1024 antiphosphotyrosine antibody were supplied by Perkin Elmer. Assay buffer contained 50 mM HEPES, 10 mM MgCb, 1 mM EGTA, 2 mM DTT, 0.1 mg/mL BSA, and 0.005% w/v tween 20, pH 7.5. Enzyme dilution buffer was made by supplementing assay buffer with 25% w/v glycerol. Antibody dilution buffer contained 20 mM Tris, 137 mM NaCl, and 0.05% w/v tween 20, pH 8.0. Buffers were prepared at room temperature. Enzyme solutions were made on ice, while other solutions were made at room temperature and all subsequent assay steps were performed at room temperature. The TrkA stock solution (0.1 mg/mL) was diluted 156× in enzyme dilution buffer and then 100× in assay buffer. Five pL/well of enzyme solution was added to the assay plate (Greiner black 384-well nonbinding plate), with buffer containing no enzyme added to negative control wells. Test compounds were serially diluted in DMSO at 300× final assay concentration. One μL of each test compound dilution was mixed with 99 pL assay buffer plus ATP (30 μM) and five pL of each test compound-ATP solution was added to w¾13s containing enzyme. Positive control wells contained enzyme and substrates but no test compounds. After a 15 minute enzyme-test compound preincubation, five pL of substrate diluted in assay buffer was added to all wells. Final assay concentrations were 33 pM TrkA, 100 nM peptide substrate, and […]. After a five minute reaction, five pL of 80 mM EDTA was added, followed five minutes later by five pL two nM antibody solution. The ratio of fluorescence at 665 nm vs. 615 nM in each well was determined using a Tecan Infinite Pro F200 plate reader. For each test compound well, percent inhibition w % s calculated (% inliib. =100-100*(test value-neg. control)/(pos. control-neg. control)). Percent inhibition values were fit to a four parameter logistic to determine ICso values for each test compound.

T1 sequence (P04629 510-781 limits assumed): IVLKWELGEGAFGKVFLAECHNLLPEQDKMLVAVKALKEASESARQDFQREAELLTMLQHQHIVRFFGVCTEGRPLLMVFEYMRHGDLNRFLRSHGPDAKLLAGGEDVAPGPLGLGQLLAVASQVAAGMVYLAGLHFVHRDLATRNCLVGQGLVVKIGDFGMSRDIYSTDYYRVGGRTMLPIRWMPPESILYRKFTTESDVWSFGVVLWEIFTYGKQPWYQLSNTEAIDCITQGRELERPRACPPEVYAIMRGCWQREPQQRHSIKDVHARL

IC50, < 10 nM:
CN(C)C(=O)Nc1cnn(-c2cnn3ccc(N4CCC[C@@H]4c4cc(F)ccc4F)nc23)c1 [I-197]
Fc1ccc(F)c([C@H]2CCCN2c2ccn3ncc(-n4cc(-c5cn[nH]c5)cn4)c3n2)c1 [I-171]
CC(C)(O)c1cnn(-c2cnn3ccc(N4CCC[C@@H]4c4cc(F)ccc4F)nc23)c1 [I-169]
Cc1cn(-c2cnn3ccc(N4CCC[C@@H]4c4cc(F)ccc4F)nc23)nc1C [I-150]
Cc1cnn(-c2cnn3ccc(N4CCC[C@@H]4c4cc(F)ccc4F)nc23)c1 [I-148]
OC1CCN(c2cnn(-c3cnn4ccc(N5CCC[C@@H]5c5cc(F)ccc5F)nc34)c2)C1 (some centres unmarked) [I-208]
Fc1ccc(F)c([C@H]2CCCN2c2ccn3ncc(-n4cc(-c5ccc(F)nc5)cn4)c3n2)c1 [I-219, (R)-5-(2-(2,5-difluorophenyl)pyrrolidin-1-yl)-3-(4-(6-fluoropyridin-3-yl)-1H-pyrazol-1-yl)pyrazolo[1,5-a]pyrimidine]
Fc1ccc(F)c([C@H]2CCCN2c2ccn3ncc(-n4cc(-c5ccnnc5)cn4)c3n2)c1 [I-199]
Fc1cccnc1[C@H]1CCCN1c1ccn2ncc(-n3cc(C(F)(F)F)cn3)c2n1 [I-215]
Cn1cc(-c2cnn(-c3cnn4ccc(N5CCC[C@@H]5c5cc(F)ccc5F)nc34)c2)cn1 [I-158]
COc1ncccc1-c1cnn(-c2cnn3ccc(N4CCC[C@@H]4c4cc(F)ccc4F)nc23)c1 [I-202]
Fc1ccc(F)c([C@H]2CCCN2c2ccn3ncc(-n4ncc5c4CCOC5)c3n2)c1 [I-184, (R)-1-(5-(2-(2,5-difluorophenyl)pyrrolidin-1-yl)pyrazolo[1,5-a]pyrimidin-3-yl)-1,4,6,7-tetrahydropyrano[4,3-c]pyrazole]
Cc1ncc(-c2cnn(-c3cnn4ccc(N5CCC[C@@H]5c5cc(F)ccc5F)nc34)c2)s1 [I-164]
COc1ccc(-c2cnn(-c3cnn4ccc(N5CCC[C@@H]5c5ncccc5F)nc34)c2)cn1 [I-222]
COc1cncc(-c2cnn(-c3cnn4ccc(N5CCC[C@@H]5c5ncccc5F)nc34)c2)c1 [I-211]
Fc1ccc(F)c([C@H]2CCCN2c2ccn3ncc(-n4cccn4)c3n2)c1 [I-152, (R)-5-(2-(2,5-difluorophenyI)pyrroIidin-1-yl)-3-(1H-pyrazol-1-yl)pyrazolo[1,5-a]pyrimidine]
Fc1ccc(F)c([C@H]2CCCN2c2ccn3ncc(-n4cc(-c5ccsc5)cn4)c3n2)c1 [I-162]
CN(C)S(=O)(=O)Nc1cnn(-c2cnn3ccc(N4CCC[C@@H]4c4cc(F)ccc4F)nc23)c1 [I-198, (R)—N-(1-(5-(2-(2,5-difluorophenyl)pyrrolidin-1-yl)pyrazolo[1,5-a]pyrimidin-3-yl)-1H-pyrazol-4-yl)-1,1-dimethylsulfonylurea]
COc1cnn(-c2cnn3ccc(N4CCC[C@@H]4c4cc(F)ccc4F)nc23)c1 [I-172]
Fc1ccc(F)c([C@H]2CCCN2c2ccn3ncc(-n4cc(-c5cncnc5)cn4)c3n2)c1 [I-163]
Cn1ccc(-c2cnn(-c3cnn4ccc(N5CCC[C@@H]5c5cc(F)ccc5F)nc34)c2)cc1=O [I-165]
OC1CCN(c2cnn(-c3cnn4ccc(N5CCC[C@@H]5c5ncccc5F)nc34)c2)C1 (some centres unmarked) [I-209]
Fc1ccc(F)c([C@H]2CCCN2c2ccn3ncc(-n4cc(-c5cccnc5)cn4)c3n2)c1 [I-159]
Cc1nnc(-c2cnn(-c3cnn4ccc(N5CCC[C@@H]5c5cc(F)ccc5F)nc34)c2)o1 [I-178, (R)-2-(1-(5-(2-(2,5-difluorophenyl)pyrrolidin-1-yl)pyrazolo[1,5-a]pyrimidin-3-yl)-1H-pyrazol-4-yl)-5-methyl-1,3,4-oxadiazole]
Fc1ccc(F)c([C@H]2CCCN2c2ccn3ncc(-n4cc(-c5ccncc5)cn4)c3n2)c1 [I-160]
COc1cncc(-c2cnn(-c3cnn4ccc(N5CCC[C@@H]5c5cc(F)ccc5F)nc34)c2)c1 [I-161]
Fc1ccc(F)c([C@H]2CCCN2c2ccn3ncc(-n4cc(-c5cnccn5)cn4)c3n2)c1 [I-153]
Fc1cccnc1[C@H]1CCCN1c1ccn2ncc(-n3cc(-c4ccncc4)cn3)c2n1 [I-213]
CP(C)(=O)c1cnn(-c2cnn3ccc(N4CCC[C@@H]4c4cc(F)ccc4F)nc23)c1 [I-174, (R)-(1-(5-(2-(2,5-difluorophenyl)pyrrolidm-1-yl)pyrazolo[1,5-a]pyrimidin-3-yl)-1H-pyrazol-4-yl)dimethylphosphine-oxide]
COc1ccc(F)c([C@H]2CCCN2c2ccn3ncc(-n4cc(C)cn4)c3n2)n1 [I-216, (R)-5-(2-(3-fluoro-6-methoxypyridin-2-yl)pyrrolidin-1-yl)-3-(4-methyl-1H-pyrazoI-1-yl)pyrazolo[1,5-a]pyrimidine]
O=C(c1cnn(-c2cnn3ccc(N4CCC[C@@H]4c4cc(F)ccc4F)nc23)c1)N1CCOCC1 [I-185, (R)-(1-(5-(2-(2,5-difluoropheiiyl)pyrrolidin-1-yl)pyrazolo[la]pyrimidin-3-yl)-1H-pyrazol-4-yl)(morpholino)methanone]
Fc1ccc(F)c([C@H]2CCCN2c2ccn3ncc(-n4cc(-c5cncc(OC6COC6)c5)cn4)c3n2)c1 [I-214, (R)-5-(2-(2,5-difluorophenyl)pyrrolidin-1-yl)-3-(4-(5-(oxetan-3-yloxy)pyridin-3-yl)-1H-pyrazol-1-yl)pyrazolo[1,5-a]pyrimidine]
OCc1cnn(-c2cnn3ccc(N4CCC[C@@H]4c4cc(F)ccc4F)nc23)c1 [I-155]
COc1cncc(-c2cnn(-c3cnn4ccc(N5CCC[C@@H]5c5nc(F)ccc5F)nc34)c2)c1 [I-206, (R)-5-(2-(3,6-difluoropyridin-2-yl)pyrrolidin-t-yl)-3-(4-(5-methoxypyridin-3-yi)-1H-pyrazol-1-yl)pyrazolo[1,5-a]pyrimidine]
COc1ccncc1-c1cnn(-c2cnn3ccc(N4CCC[C@@H]4c4cc(F)ccc4F)nc23)c1 [I-201]
Fc1ccc(F)c([C@H]2CCCN2c2ccn3ncc(-n4cc(C(F)F)cn4)c3n2)c1 [I-176, (R)-3-(4-(difluor®methyl)-1H-pyrazol-1-yl)-5-(2-(2,5-difluorophenyl)pyrrolidin-˜yl)pyrazolo[1,5-a]pyriniidine]
CCP(=O)(CC)c1cnn(-c2cnn3ccc(N4CCC[C@@H]4c4cc(F)ccc4F)nc23)c1 [I-177]
COc1cnccc1-c1cnn(-c2cnn3ccc(N4CCC[C@@H]4c4cc(F)ccc4F)nc23)c1 [I-204]
Cc1cnn(-c2cnn3ccc(N(C)[C@H](C)c4ccccc4)nc23)c1 [I-195, (R)—N-methyl-3-(4-methyl-1H-pyrazol-1-yl)-N-(1-phenylethyl)pyrazolo[1,5-a]pyrimidin-5-amine]
COCCOCc1cnn(-c2cnn3ccc(N4CCC[C@@H]4c4cc(F)ccc4F)nc23)c1 [I-180, (R)-5-(2-(2,5-difluerophenyl)pyrrolidin-1-yl)-3-(4-((2-methoxyethoxy)methyl)-1H-pyrazol-1-yl)pyrazolo[1,5-a]pyrimidine]
Fc1ccc(F)c([C@H]2CCCN2c2ccn3ncc(-n4cc(C5=CCOC5)cn4)c3n2)c1 [I-188]
Fc1ccc(F)c([C@H]2CCCN2c2ccn3ncc(-n4cc(-c5ccc(OC6COC6)nc5)cn4)c3n2)c1 [I-223, (R)-5-(2-(2,5-difluorophenyl)pyrrolidn-1-yl)-3-(4-(6-(oxetan-3-yloxy)pyridin-3-yl)-H-pyrazol-1-yl)pyrazolo[1,5-a]pyrimidine]
Cc1cnn(-c2cnn3ccc(N4CCC[C@@H]4c4ncccc4F)nc23)c1 [I-182, (R)-5-(2-(3-fluoropyridin-2-yl)pyrrolidin-1-yl)-3-(4-methyl-1H-pyrazol-1-yl)pyrazolo[1,5-a] pyrimidine]
COc1ccc(-c2cnn(-c3cnn4ccc(N5CCC[C@@H]5c5cc(F)ccc5F)nc34)c2)cn1 [I-200]
